The values below come from patent publication US9399636B2, “Substituted dipyridylamines and uses thereof” (Genentech, Inc., priority 2012, dated 2016).

The target of the experiment is T1, DLK (Homo sapiens, UniProt Q12852).
T1 construct: N-terminally GST-tagged DLK (catalytic domain amino acid 1-520) (Carna Bioscience); GST (N); purchased Carna Bioscience
T1 sequence (Q12852 1-520): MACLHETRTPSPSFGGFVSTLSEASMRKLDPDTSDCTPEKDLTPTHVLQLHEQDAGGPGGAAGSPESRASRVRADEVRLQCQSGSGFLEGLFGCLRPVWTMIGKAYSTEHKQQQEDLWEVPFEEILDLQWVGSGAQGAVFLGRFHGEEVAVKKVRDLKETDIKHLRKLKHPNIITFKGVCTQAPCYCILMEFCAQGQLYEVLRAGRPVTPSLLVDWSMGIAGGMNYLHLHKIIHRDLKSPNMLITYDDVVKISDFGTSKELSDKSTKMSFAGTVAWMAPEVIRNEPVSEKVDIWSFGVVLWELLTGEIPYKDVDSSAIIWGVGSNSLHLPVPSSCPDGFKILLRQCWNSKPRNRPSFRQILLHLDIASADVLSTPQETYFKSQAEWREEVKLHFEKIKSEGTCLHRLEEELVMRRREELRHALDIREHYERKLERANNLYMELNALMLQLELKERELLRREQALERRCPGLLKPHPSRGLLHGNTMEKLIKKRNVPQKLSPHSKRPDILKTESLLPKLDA
The experiment in a line: DLK TR-FRET assay. Format: biochemical. The following applies: 5 nM GST-tagged DLK (catalytic domain amino acid 1-520), 40 nM HIS-tagged MKK4 K131M substrate, 30 μM ATP, 60 minutes. As to the method: DLK TR-FRET assay: DLK kinase reactions (20 μL) containing 5 nM N-terminally GST-tagged DLK (catalytic domain amino acid 1-520) (Carna Bioscience), 40 nM N-terminally HIS-tagged MKK4 K131M substrate, and 30 μM ATP in kinase reaction buffer (50 mM HEPES, pH 7.5, 0.01% Triton X-100, 0.01% Bovine γ-Globulins, 2 mM DTT, 10 mM MgCl2 and 1 mM EGTA), and testing compound 1:3 serial diluted starting at 20 uM were incubated at ambient temperature for 60 minutes in 384 well OptiPlate (Perkin Elmer). To quench kinase reactions and detect phosphorylated MKK4, 15 μL of TR-FRET antibody mixture containing 2 nM anti-phosphorylated MKK4 labeled with Europium cryptate (Cisbio) and 23 nM anti-HIS labeled with D2 (Cisbio) in detection buffer (25 mM Tris pH 7.5, 100 mM NaCl, 100 mM EDTA, 0.01% Tween-20, and 200 mM KF) was added to the reaction mixture. The detection mixture was incubated for 3 hours at ambient temperature and the TR-FRET was detected with an EnVision multilabel plate reader (Perkin-Elmer) using the LANCE/DELFIA Dual Enh label from Perkin-Elmer (excitation filter: UV2 (TRF) 320 and emission filters: APC 665 and Europium 615).
(In general: TR-FRET usually uses a lanthanide donor and a delayed reading to cut background.)
Regarding `N#Cc1ccnc(Nc2cc(C3CCOCC3)cc(N3CCC(F)(F)C3)n2)c1` [Example 130, 2-[6-(3,3-Difluoro-pyrrolidin-1-yl)-4-(tetrahydro-pyran-4-yl)-pyridin-2-ylamino]-isonicotinonitrile], the affinity corresponds to a Ki of 0.88 nM. In other words, the sub-nanomolar range.

Take `FC(F)c1ccnc(Nc2cc(C3CCN(C4COC4)CC3)cc(C3CC3)n2)c1` [Example 25, (6-Cyclopropyl-1′-oxetan-3-yl-1′,2′,3′,4′,5′,6′-hexahydro-[4,4′]bipyridinyl-2-yl)-(4-difluoromethyl-pyridin-2-yl)-amine]: the Ki – broadly, the dissociation constant of the complex between target and ligand, obtained from inhibition or displacement – was found to be 0.84 nM. `N#Cc1ccnc(Nc2cc(C3(C#N)CCN(C4COC4)CC3)cc(N3CC4CC4C3)n2)c1` (stereo not drawn) [Example 35, 6′-(3-Aza-bicyclo[3.1.0]hex-3-yl)-2′-(4-cyano-pyridin-2-ylamino)-1-oxetan-3-yl-2,3,5,6-tetrahydro-1H-[4,4′]bipyridinyl-4-carbonitrile] returned a Ki of 0.8 nM. This Ki and that of the compound before are within 1.5-fold of each other. Compound `N#Cc1ccnc(Nc2cc(C3CCN(C4COC4)CC3)cc(C3CC3)n2)c1` [Example 28, 2-(6-Cyclopropyl-1′-oxetan-3-yl-1′,2′,3′,4′,5′,6′-hexahydro-[4,4′]bipyridinyl-2-ylamino)-isonicotinonitrile] registered a Ki of 1.4 nM. On to `N#CC1(c2cc(Nc3cc(C(F)(F)F)ccn3)nc(N3CC(F)C3)c2)CCNCC1` [Example 23, 6′-(3-Fluoro-azetidin-1-yl)-2′-(4-trifluoromethyl-pyridin-2-ylamino)-2,3,5,6-tetrahydro-1H-[4,4′]bipyridinyl-4-carbonitrile], for which affinity was put at a Ki of 0.32 nM. Consider `CC(=O)N1CCC(c2cc(Nc3cc(C#N)ccn3)nc(C3CC3)c2)CC1` [Example 59, 2-(1′-Acetyl-6-cyclopropyl-1′,2′,3′,4′,5′,6′-hexahydro-[4,4′]bipyridinyl-2-ylamino)-isonicotinonitrile], for which the Ki was determined as 1.5 nM. This Ki is about 4.7-fold higher than that of the compound before.

`COC1CN(c2cc(C3(C#N)CCNCC3)cc(Nc3cc(C(F)(F)F)ccn3)n2)C1` [Example 19, 6′-(3-Methoxy-azetidin-1-yl)-2′-(4-trifluoromethyl-pyridin-2-ylamino)-2,3,5,6-tetrahydro-1H-[4,4′]bipyridinyl-4-carbonitrile] had a Ki of 5.1 nM. In the case of `N#Cc1ccnc(Nc2cc(C3CCN(C4COC4)CC3)cc(N3CC4(CCC4(F)F)C3)n2)c1` [Example 94, 2-[6-(5,5-Difluoro-2-aza-spiro[3.3]hept-2-yl)-1′-oxetan-3-yl-1′,2′,3′,4′,5′,6′-hexahydro-[4,4′]bipyridinyl-2-ylamino]-isonicotinonitrile] it was 4.1 nM; in that of `C[C@@H]1CCCN1c1cc(C2(C#N)CCN(C3COC3)CC2)cc(Nc2cc(C#N)ccn2)n1` [Example 30, 2′-(4-Cyano-pyridin-2-ylamino)-6′-((R)-2-methyl-pyrrolidin-1-yl)-1-oxetan-3-yl-2,3,5,6-tetrahydro-1H-[4,4′]bipyridinyl-4-carbonitrile], 0.17 nM; in that of `N#Cc1ccnc(Nc2cc(C3CCN(C4COC4)CC3)cc(N3CCC4CC43)n2)c1` (stereo not drawn) [Example 99, 2-[6-(2-Aza-bicyclo[3.1.0]hex-2-yl)-1′-oxetan-3-yl-1′,2′,3′,4′,5′,6′-hexahydro-[4,4′]bipyridinyl-2-ylamino]-isonicotinonitrile], 0.9 nM. For `COc1cc(C2CCN(C(C)=O)CC2)cc(Nc2cc(C#N)ccn2)n1` [Example 21, 2-(1′-Acetyl-6-methoxy-1′,2′,3′,4′,5′,6′-hexahydro-[4,4′]bipyridinyl-2-ylamino)-isonicotinonitrile], the affinity, expressed as Ki, was 12 nM. With `N#Cc1ccnc(Nc2cc(C3CCOCC3)cc(N3CCC4(CCOC4)C3)n2)c1` (stereo not drawn) [Example 85, 2-[6-(2-Oxa-7-aza-spiro[4.4]non-7-yl)-4-(tetrahydro-pyran-4-yl)-pyridin-2-ylamino]-isonicotinonitrile], affinity was put at a Ki of 15 nM. As for `CC(=O)N1CCC(c2cc(C)nc(Nc3cc(C(F)F)ccn3)c2)CC1` [Example 62, 1-[2′-(4-Difluoromethyl-pyridin-2-ylamino)-6′-methyl-3,4,5,6-tetrahydro-2H-[4,4′]bipyridinyl-1-yl]-ethanone], the affinity, expressed as Ki, was 170 nM. The same measure for `COC1CN(c2cc(C3CCOCC3)cc(Nc3cc(C#N)ccn3)n2)C1` [Example 87, 2-[6-(3-Methoxy-azetidin-1-yl)-4-(tetrahydro-pyran-4-yl)-pyridin-2-ylamino]-isonicotinonitrile]: 51 nM. Turning to `N#Cc1ccnc(Nc2cc(C3CCOCC3)cc(N3CCC4CC43)n2)c1` (stereo not drawn) [Example 83, 2-[6-(2-Aza-bicyclo[3.1.0]hex-2-yl)-4-(tetrahydro-pyran-4-yl)-pyridin-2-ylamino]-isonicotinonitrile], the affinity, expressed as Ki, was 4.6 nM. The compound `Cc1ccnc(Nc2cc(C3CCN(C(=O)[C@@H]4CCCCN4)CC3)ccn2)c1` [Example 147, (S)-(4-(2-((4-methylpyridin-2-yl)amino)pyridin-4-yl)piperidin-1-yl)(piperidin-2-yl)methanone] returned a Ki of 1200 nM.

The compound `CCc1cc(C2CCN(C(C)=O)CC2)cc(Nc2cc(C(F)F)ccn2)n1` [Example 58, 1-[2′-(4-Difluoromethyl-pyridin-2-ylamino)-6′-ethyl-3,4,5,6-tetrahydro-2H-[4,4′]bipyridinyl-1-yl]-ethanone] had a Ki of 64 nM.

For the compound `FC(F)c1ccnc(Nc2cc(C3CCN(C4COC4)CC3)cc(N3CCC(F)(F)C3)n2)c1` [Example 71, (4-Difluoromethyl-pyridin-2-yl)-[6-(3,3-difluoro-pyrrolidin-1-yl)-1′-oxetan-3-yl-1′,2′,3′,4′,5′,6′-hexahydro-[4,4′]bipyridinyl-2-yl]-amine], affinity was put at a Ki of 0.36 nM. This Ki lies about 180-fold lower than the previous one. Regarding `COC1CN(c2cc(C3CCN(C4COC4)CC3)cc(Nc3cc(C(F)F)ccn3)n2)C1` [Example 48, (4-Difluoromethyl-pyridin-2-yl)-[6-(3-methoxy-azetidin-1-yl)-1′-oxetan-3-yl-1′,2′,3′,4′,5′,6′-hexahydro-[4,4′]bipyridinyl-2-yl]-amine], affinity was put at a Ki of 21 nM. Turning to `N#Cc1ccnc(Nc2cc(C3(C#N)CCOCC3)cc(N3CCC(F)(F)C3)n2)c1` [Example 61, 2-[4-(4-Cyano-tetrahydro-pyran-4-yl)-6-(3,3-difluoro-pyrrolidin-1-yl)-pyridin-2-ylamino]-isonicotinonitrile], the Ki came out at 4.7 nM. Take `N#Cc1ccnc(Nc2cc(C3CCOCC3)cc(N3CC4CC4C3)n2)c1` (stereo not drawn) [Example 84, 2-[6-(3-Aza-bicyclo[3.1.0]hex-3-yl)-4-(tetrahydro-pyran-4-yl)-pyridin-2-ylamino]-isonicotinonitrile]: the Ki is 1.6 nM. `N#Cc1ccnc(Nc2cc(C3CCOCC3)cc(N3CC4(CCC4(F)F)C3)n2)c1` [Example 103, 2-[6-(5,5-Difluoro-2-aza-spiro[3.3]hept-2-yl)-4-(tetrahydro-pyran-4-yl)-pyridin-2-ylamino]-isonicotinonitrile] displayed a Ki of 16 nM. In turn, `N#Cc1ccnc(Nc2cc(C3CCOCC3)cc(N3CC4(CCOC4)C3)n2)c1` [Example 102, 2-[6-(6-Oxa-2-aza-spiro[3.4]oct-2-yl)-4-(tetrahydro-pyran-4-yl)-pyridin-2-ylamino]-isonicotinonitrile] registered a Ki of 88 nM. With `CC(=O)N1CCC(c2cc(Nc3cc(C#N)ccn3)nc(N3CCC[C@H]3C)c2)CC1` [Example 119, 2-[1′-Acetyl-6-((R)-2-methyl-pyrrolidin-1-yl)-1′,2′,3′,4′,5′,6′-hexahydro-[4,4′]bipyridinyl-2-ylamino]-isonicotinonitrile], the Ki was determined as 0.2 nM.
